Our source for the TGI values is PubChem BioAssay (NCI).

Test systems include A549 NSCLC; BT-549 breast; COLO 205 colon; HCT-116 colon; K-562 leukemia; KM12 colon; MALME-3M melanoma; MDA-N; NCI/ADR-RES ovarian; OVCAR-4 ovarian; OVCAR-8 ovarian; PC-3 prostate; SK-MEL-28 melanoma; SK-MEL-5 melanoma; SN12C renal; SR leukemia; T-47D breast; TK-10 renal.
What all share (test): NCI-60 cell line screen, 48 h

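In this assay, cells in 96-well plates receive the compound at five concentrations for 48 hours. Endpoints are linearly interpolated between the surrounding concentrations. TGI marks complete inhibition of growth.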

Regarding `Nc1ccc(-c2nnc(-c3c(Cl)c(Cl)c(Cl)c(Cl)c3-c3nc4ccc(C(=O)c5ccccc5)cc4[nH]3)o2)cc1`, the TGI with A549 NSCLC is more than 100 µM; with BT-549 breast it was more than 100 µM; with COLO 205 colon, 50.2 µM; with HCT-116 colon it was 56.9 µM; with K-562 leukemia it was 31.6 µM; in the test with KM12 colon, more than 100 µM. For the same molecule, the TGI with MALME-3M melanoma is more than 100 µM; in the test with MDA-N, 19 µM; in the test with NCI/ADR-RES ovarian it was 41 µM; in the test on OVCAR-4 ovarian, more than 100 µM; with OVCAR-8 ovarian, more than 100 µM; with PC-3 prostate, 49.9 µM. The TGI in the test on SK-MEL-28 melanoma is more than 100 µM; with SK-MEL-5 melanoma, 26.4 µM; with SN12C renal, 37.7 µM; in the test on SR leukemia it was 28.2 µM; in the test on T-47D breast, 78.5 µM; in the test on TK-10 renal, 77.6 µM.

Regarding `Oc1c(Nc2ccccc2)cc2c3c1N=NC=3CCN=2`, the TGI with A549 NSCLC was more than 100 µM; with BT-549 breast it was more than 100 µM; with COLO 205 colon, more than 100 µM; with HCT-116 colon, 44.4 µM; in the test with K-562 leukemia, more than 100 µM; in the test with KM12 colon it was more than 100 µM. Besides, the TGI in the test on MALME-3M melanoma was 29.1 µM; with MDA-N, 31.7 µM; in the test on NCI/ADR-RES ovarian, more than 100 µM; with OVCAR-4 ovarian, more than 100 µM; in the test with OVCAR-8 ovarian it was 59.8 µM; in the test on PC-3 prostate it was more than 100 µM. For the same molecule, the TGI in the test on SK-MEL-28 melanoma is more than 100 µM; with SK-MEL-5 melanoma, 33.1 µM; in the test on SN12C renal, more than 100 µM; with SR leukemia it was more than 100 µM; with T-47D breast, more than 100 µM; in the test with TK-10 renal it was more than 100 µM.

`C=CC(C)(C)c1c(OC)oc2ccc(OC)c(C)c2c1=O`: the TGI with A549 NSCLC, in the test on BT-549 breast, in the test with COLO 205 colon, in the test on HCT-116 colon, with K-562 leukemia and with KM12 colon was more than 100 µM throughout. Also, the TGI in the test with MALME-3M melanoma, in the test on MDA-N, in the test on NCI/ADR-RES ovarian, in the test on OVCAR-8 ovarian, in the test on PC-3 prostate and with SK-MEL-28 melanoma was more than 100 µM in each case. Moreover, the TGI in the test with SK-MEL-5 melanoma, in the test on SN12C renal, with SR leukemia, with T-47D breast and in the test on TK-10 renal was more than 100 µM throughout.

As for `c1ccc(C2C3=C(c4ccccc4CC3)N3c4cc5nc6ccccc6nc5cc4NC34CCCCC24)cc1` (centres undefined), the TGI in the test with A549 NSCLC, in the test with BT-549 breast, with COLO 205 colon, with HCT-116 colon, in the test with K-562 leukemia and in the test on KM12 colon was more than 10 µM in each case. Further, the TGI in the test on MALME-3M melanoma, in the test on MDA-N, in the test on NCI/ADR-RES ovarian, in the test on OVCAR-4 ovarian, in the test with OVCAR-8 ovarian and with PC-3 prostate was more than 10 µM throughout. Further, the TGI in the test on SK-MEL-28 melanoma is more than 10 µM; in the test with SK-MEL-5 melanoma it was more than 10 µM; in the test on SN12C renal it was more than 10 µM; with SR leukemia, 2.05 µM; with T-47D breast it was more than 10 µM; with TK-10 renal, more than 10 µM.

In the case of `O=C(O)[C@@]1(Cc2ccc(O)cc2)C[C@@H]2Cc3ccccc3N2N1`, the TGI in the test with A549 NSCLC, in the test on BT-549 breast, in the test with COLO 205 colon, in the test on HCT-116 colon, in the test with KM12 colon and with MALME-3M melanoma was more than 100 µM in each case. For the same molecule, the TGI with MDA-N, in the test with NCI/ADR-RES ovarian, with OVCAR-4 ovarian, in the test on OVCAR-8 ovarian, with PC-3 prostate and with SK-MEL-28 melanoma was more than 100 µM throughout. Besides, the TGI in the test on SK-MEL-5 melanoma, with SN12C renal, in the test on SR leukemia, in the test on T-47D breast and in the test on TK-10 renal was more than 100 µM in each case.

In the case of `COCN1C(=O)[C@@H]2CCCN2C(=O)c2ccc(Cl)cc21`, the TGI with A549 NSCLC, in the test on BT-549 breast, in the test with COLO 205 colon, with HCT-116 colon, in the test with K-562 leukemia and with KM12 colon was more than 100 µM throughout. Further, the TGI with MALME-3M melanoma, in the test on MDA-N, in the test with NCI/ADR-RES ovarian, with OVCAR-4 ovarian, in the test on OVCAR-8 ovarian and with PC-3 prostate was more than 100 µM each time. Also, the TGI with SK-MEL-28 melanoma, in the test on SN12C renal, with SR leukemia, in the test with T-47D breast and in the test with TK-10 renal was more than 100 µM each time.

For `CC(=O)OCc1cc(OC(C)=O)c2cc3c(OC(C)=O)cccc3c(OC(C)=O)c2c1`, the TGI with A549 NSCLC is 30.9 µM; in the test with BT-549 breast, 49.6 µM; in the test on COLO 205 colon it was more than 100 µM; in the test on HCT-116 colon, more than 100 µM; with K-562 leukemia it was more than 100 µM; in the test with MALME-3M melanoma, 4.08 µM. The TGI with MDA-N turned out to be 40.9 µM; with NCI/ADR-RES ovarian, 43.4 µM; in the test on OVCAR-4 ovarian it was 59.3 µM; with OVCAR-8 ovarian it was 35.4 µM; in the test with PC-3 prostate, 38.6 µM; with SK-MEL-28 melanoma, 51.7 µM. Further, the TGI in the test with SK-MEL-5 melanoma is 23.7 µM; in the test with SN12C renal, 32.2 µM; in the test with SR leukemia it was more than 100 µM; in the test with T-47D breast, 51.3 µM; in the test with TK-10 renal it was 33 µM.

On to `Cc1ccc(NC(=O)C23CC4CC(CC(C4)C2)C3)c(C(=O)NNC(=O)c2ccc(Cl)cc2)c1`, for which the TGI in the test on A549 NSCLC is 46 µM; in the test on BT-549 breast it was more than 100 µM; in the test with COLO 205 colon, more than 100 µM; in the test on HCT-116 colon it was more than 100 µM; in the test with K-562 leukemia it was 95 µM; in the test with KM12 colon, 90.9 µM. The TGI is 59.4 µM with MALME-3M melanoma; 52.1 µM in the test with MDA-N; 61.1 µM in the test on NCI/ADR-RES ovarian; 65.8 µM in the test with OVCAR-4 ovarian; more than 100 µM in the test on OVCAR-8 ovarian; 69.5 µM with PC-3 prostate. In addition, the TGI in the test with SK-MEL-5 melanoma is 42.6 µM; with SN12C renal, more than 100 µM; in the test with SR leukemia, 30.1 µM; with T-47D breast, more than 100 µM; in the test with TK-10 renal, 41.5 µM.
